According to PubChem BioAssay AID463074 (Broad Institute, 2010):
Calls of active or inactive are those of the source.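 Rule for the calls: active = AC50 no more than tenfold above the top dose tested, or full inhibition at every dose with a flat fit (cut at about 19 µM in these data); inconclusive = flat curve fit with inhibition between 30% and 70%, or poor fit; inactive = AC50 more than tenfold above the top dose tested.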

Tested on: HMLE_sh_eGFP viability, CellTiter-Glo luminescence, 72 h
Assay: viability loss of HMLE_sh_eGFP cells – cell-based, luminescence, counter-screen for HMLE_sh_ECad selective toxicity project, dose response (AID 463074);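 note: counterscreen control line to flag general toxicity for the HMLE_sh_ECad screen; potency for loss of viability as luminescence drops below DMSO wells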

Compound	AC50
COC(=O)c1ccc(CN(c2ccc(C(=O)O)c(O)c2)S(=O)(=O)c2ccc(Cl)c([N+](=O)[O-])c2)cc1	3.5 µM
O/N=C(\c1ccc(Cl)cc1Cl)c1ncc(C(F)(F)F)cc1Cl	13.9 µM
COc1cc2c(cc1NC(=O)Nc1ccc(C)cc1)oc1ccccc12	11.3 µM
CC[C@@H]1CC=C[C@H]2[C@H]1C(=O)N(Cc1ccccc1)[C@H]2c1ccoc1	7.03 µM
CCC(C)n1c(-c2cccs2)nc2nc3ccccc3nc21 (configuration not stated)	15.5 µM
Cc1ccc(CN2CCSc3ccc(C(=O)NCc4ccco4)cc32)cc1	> 19.5 µM (inactive)
COc1ccc(-c2cccc([C@H]3[C@@H]4C=CCC[C@@]4(C)C(=O)N3Cc3ccccc3)c2)cc1	7.45 µM
Fc1cccc(-c2cc3nc4c(c(NCc5ccco5)n3n2)CCCC4)c1	7.77 µM
CCN(CC)S(=O)(=O)c1ccc2c(c1)C(=NO)c1cc(S(=O)(=O)N(CC)CC)ccc1-2	0.756 µM
COc1cccc(-c2sc3ccc(OC)cc3c2-c2ccc(OCCN(C)C)cc2)c1	3.59 µM
Cc1ccnc2c1ccc1c(C)ccnc12	0.937 µM
O=C(O)c1ccc(CSc2nc(-c3ccc(Cl)cc3)cc(C(F)(F)F)n2)cc1	9.94 µM
O=C(Nc1ccc(Oc2c(F)c(F)c(F)c(F)c2F)cc1)OC1CCN2Cc3ccccc3N=C12 (configuration not stated)	1.21 µM
COc1ccc(Cn2c(SCc3ccccc3C)nc3cc(OC)c(OC)cc3c2=N)cc1	3.7 µM
C=C(C)COc1ccc(-c2[nH]ncc2Oc2ccc(OC)cc2)c(O)c1	5.99 µM
CC1(C)C=Cc2c(c3c(c4c(=O)c(-c5ccc(O)cc5)coc24)OC(C)(C)CC3)O1	7.5 µM
COCCCn1c(SCc2cccc(C(F)(F)F)c2)nc2cc(OC)c(OC)cc2c1=N	4.75 µM
CC(C)(C)c1ccc(C(=O)NCCCN2CCN(CCCNC(=O)c3ccc(C(C)(C)C)cc3)CC2)cc1	3.25 µM
CCN1CCN(CCCNC(=O)c2ccc3c(c2)NC(=O)/C(=C\c2cccc(C)c2)S3)CC1	3.62 µM
O=C(c1cc(-c2cccc(O)c2)on1)N1CCN(C(c2ccccc2)c2ccccc2)CC1	3.11 µM
COc1ccc(-c2csc(NC(=S)NC(=O)/C=C/c3ccco3)n2)cc1OC	3.72 µM
Cc1ccc(S[C@@H](CCN2CC[C@H](C(C)(C)C)CCC2=O)c2ccccc2)cc1	3.57 µM
CCCC(=O)NC(c1ccco1)c1cc([N+](=O)[O-])c2cccnc2c1O (configuration not stated)	7.35 µM
O=C1NC(=O)N(Cc2ccccc2)C(=O)/C1=C\C=C\c1ccco1	1.93 µM
COc1ccc(/C=C/C(=O)c2ccc(NS(=O)(=O)c3ccc(C)cc3)cc2)cc1O	3.56 µM
O=C(/C(N=Nc1cccc(C(F)(F)F)c1)=C(/O)c1cccs1)C(F)(F)F	2.17 µM

Compound	AC50
COc1ccc(-n2sc3c(c2=S)-c2cc(OC)ccc2NC3(C)C)cc1	3.51 µM
COc1cc(/C=C(\C#N)c2ccccn2)ccc1OCC(=O)Nc1ccc(Br)cc1	2.7 µM
CCCc1nc2ccccc2c(C(=O)OCC(=O)N2CCc3ccccc32)c1CC	3.97 µM
Cc1ccc(Sc2c([N+](=O)[O-])c(=O)n(C)c3ccccc23)cc1	7.05 µM
CCC1CSC(Nc2ccc(C(=O)/C=C/c3ccc(Br)cc3)cc2)=N1 (configuration not stated)	5.68 µM
Oc1ccc(Br)cc1/C=N/NC(=S)NCCc1ccccc1	4.19 µM
CCCCOc1ccc(C(=O)Nc2ccc3c(c2)OCO3)cc1	3.66 µM
CC(C)CN=C(NS(=O)(=O)c1ccccc1)C(Cl)(Cl)Cl	3.27 µM
OC(CNCCc1ccc(C(F)(F)F)cc1)COc1ccc2ccccc2c1 (configuration not stated)	4.98 µM
O=C(NNc1ccccc1)C(=O)N1CCCCC1	3.16 µM
Cc1cn(-c2cc(C(=O)Nc3ccc(C)c(NC(=O)C(=O)c4c[nH]c5ccccc45)c3)cc(C(F)(F)F)c2)cn1	3.5 µM
Cc1cccc(Nc2nc(-c3ccc(O)cc3O)cs2)n1	7.5 µM
Cc1cccc(N(C)C(=O)c2cc3c(=O)[nH]c4ccc(C)cc4c3s2)c1	2.52 µM
O=C(/C=C/Sc1ccccc1)c1ccc(Cl)cc1	4.56 µM
Cc1cc(SCC(=O)N/N=C/c2ccc(O)cc2O)c(C)cc1Br	4.42 µM
CN(C)CCCNc1ccc(-c2cc(Nc3cccc(Cl)c3)ncn2)cn1	4.8 µM
COc1ccc(Br)cc1C(C[N+](=O)[O-])c1c(N)n(C)c(=O)n(C)c1=O (configuration not stated)	4.93 µM
CCCC/C(C)=C/[C@@H](NP(=O)(c1ccccc1)c1ccccc1)c1ccccc1	6.68 µM
CCC1CCCCN1S(=O)(=O)c1ccc(S(=O)(=O)N(Cc2ccccn2)CC2CCCO2)cc1 (configuration not stated)	2.49 µM
CC(=O)Nc1ccc(C2CC(c3ccc(Cl)cc3)=NN2c2ccccc2)cc1 (configuration not stated)	2.13 µM
COc1ccc(C(=O)NCC2(c3ccccc3)CCCC2)c(OC)c1	9.54 µM
Oc1cccc(C(O)CNCc2ccc(OCc3ccc(Cl)cc3Cl)cc2)c1 (configuration not stated)	7.09 µM
O=C(NNc1ccc(Cl)cc1)c1cccs1	1.58 µM
CCCCn1c(C2CCCCC2)nc2cc3[nH]c(=O)c(C(C)C)nc3cc21	1.52 µM
COc1ccc(-c2cc(C(F)(F)F)nc(S(C)(=O)=O)n2)cc1	3.56 µM
CC1(C)CC[C@]2(CO)[C@@H](O)C[C@]3(C)C(=CCC4[C@@]5(C)CC[C@H](O)C(C)(C)C5CC[C@]43C)[C@@H]2C1 (some centres not stated)	4.35 µM

Compound	AC50
CC(C)c1ccc(/C=N/NC(=O)c2cccc(Cl)c2)cc1	8.64 µM
Oc1ccccc1-n1c(-c2ccccc2)ccc1-c1ccccc1	7.62 µM
COc1ccc(Nc2nc(-c3cccc([N+](=O)[O-])c3)nc3ccccc23)cc1	17.8 µM
CC(C)(C)c1cc(-c2nc(N)nc(N)n2)c(O)c(C(C)(C)C)c1	3.57 µM
COc1cc2nc(CN3CC=C(c4ccccc4)CC3)[nH]c(=O)c2cc1OC	3.39 µM
COc1ccc2c(c1)C(=O)[C@H](O)[C@@H](c1ccc(OC)c(Br)c1)O2	3.61 µM
COc1ccc(C(=O)c2ccc(OC)cc2OC)cc1	5.49 µM
COc1ccc(CCCC(=O)N/N=C/c2cccc(OC)c2O)cc1C	3.13 µM
COc1cccc(-c2sc3ccccc3c2-c2ccc(OCCN3CCOCC3)cc2)c1	4.3 µM
CCOC(=O)[C@@H]1[C@H]2COc3cc(OC)ccc3[C@H]2N2C(=O)N(c3ccc(C(F)(F)F)cc3)C(=O)[C@]12C	4.62 µM
CCCCC(CC)CN1C(=O)/C(=C/c2ccncc2)SC1=S (configuration not stated)	6.81 µM
C=CCn1c(O)c(C2=c3ccccc3=NC2=O)c2ccccc21	7.4 µM
Cc1cc(C(=O)N/N=C/c2cc(Br)cc(Br)c2OC(=O)c2cccc(F)c2)n[nH]1	3.3 µM
COc1ccc(CNCCC(c2ccc(OC(C)C)cc2)c2ccccc2OC)cc1 (configuration not stated)	4.71 µM
O=C1NC(=O)N(CCc2ccc(F)cc2)C(=O)/C1=C/C=C/c1ccccc1	3.91 µM
CC(C)=CCc1c(O)ccc(C(=O)Cc2ccccc2)c1O	4.41 µM
CC(=O)Nc1ccc(SCC(=O)c2cc(C)n(-c3ccccc3)c2C)cc1	13.3 µM
OC(COCC(F)(F)C(F)(F)C(F)(F)C(F)F)Cn1c2ccccc2c2ccccc21 (configuration not stated)	6.63 µM
COc1ccc(NS(=O)(=O)c2ccc3nc(COc4cccc5ccccc45)[nH]c3c2)cc1	4.75 µM
COc1ccc(S[C@@H](CCN2CC[C@H](NC(=O)OCc3ccccc3)CCC2=O)c2ccccc2)cc1	3.12 µM
O=C(NC(=S)NCCc1ccccc1)C1CCCCC1	18.4 µM
COc1cc2nc(Nc3ccc(C)c(Cl)c3)nc(N)c2cc1OC	6.97 µM
O=C(NCCN1CCOCC1)NC1(C(F)(F)F)Oc2ccc(Cl)cc2O1 (configuration not stated)	14 µM
CC(=O)Nc1ccc(OCC(O)CN2CCN(c3cc(Cl)ccc3C)CC2)cc1 (configuration not stated)	5.17 µM
Nc1ccccc1N=Cc1ccc(-c2cccc(Cl)c2)o1	4.22 µM
